Test results from ChEMBL document CHEMBL4052645, “Discovery of potent and efficacious pyrrolopyridazines as dual JAK1/3 inhibitors” (Bioorg Med Chem Lett, 2017).

What was measured:
[1] = biological target: Serine/threonine-protein kinase RIO3 (Homo sapiens) (UniProt O14730); experiment: Inhibition of full length human RIOK3 (M1 to E519 residues) expressed in bacterial expression system assessed as residual activity at 50 nM by KINOMEscan assay relative to control
JAK2 = JAK2 (Homo sapiens, UniProt O60674); experiment: Inhibition of human JAK2 (A829 to G1132 residues) expressed in mammalian expression system assessed as residual activity at 50 nM by KINOMEscan assay relative to control; conditions: read-out: Activity
Sequence of JAK2 (O60674 whole entry, the tested form may be a part): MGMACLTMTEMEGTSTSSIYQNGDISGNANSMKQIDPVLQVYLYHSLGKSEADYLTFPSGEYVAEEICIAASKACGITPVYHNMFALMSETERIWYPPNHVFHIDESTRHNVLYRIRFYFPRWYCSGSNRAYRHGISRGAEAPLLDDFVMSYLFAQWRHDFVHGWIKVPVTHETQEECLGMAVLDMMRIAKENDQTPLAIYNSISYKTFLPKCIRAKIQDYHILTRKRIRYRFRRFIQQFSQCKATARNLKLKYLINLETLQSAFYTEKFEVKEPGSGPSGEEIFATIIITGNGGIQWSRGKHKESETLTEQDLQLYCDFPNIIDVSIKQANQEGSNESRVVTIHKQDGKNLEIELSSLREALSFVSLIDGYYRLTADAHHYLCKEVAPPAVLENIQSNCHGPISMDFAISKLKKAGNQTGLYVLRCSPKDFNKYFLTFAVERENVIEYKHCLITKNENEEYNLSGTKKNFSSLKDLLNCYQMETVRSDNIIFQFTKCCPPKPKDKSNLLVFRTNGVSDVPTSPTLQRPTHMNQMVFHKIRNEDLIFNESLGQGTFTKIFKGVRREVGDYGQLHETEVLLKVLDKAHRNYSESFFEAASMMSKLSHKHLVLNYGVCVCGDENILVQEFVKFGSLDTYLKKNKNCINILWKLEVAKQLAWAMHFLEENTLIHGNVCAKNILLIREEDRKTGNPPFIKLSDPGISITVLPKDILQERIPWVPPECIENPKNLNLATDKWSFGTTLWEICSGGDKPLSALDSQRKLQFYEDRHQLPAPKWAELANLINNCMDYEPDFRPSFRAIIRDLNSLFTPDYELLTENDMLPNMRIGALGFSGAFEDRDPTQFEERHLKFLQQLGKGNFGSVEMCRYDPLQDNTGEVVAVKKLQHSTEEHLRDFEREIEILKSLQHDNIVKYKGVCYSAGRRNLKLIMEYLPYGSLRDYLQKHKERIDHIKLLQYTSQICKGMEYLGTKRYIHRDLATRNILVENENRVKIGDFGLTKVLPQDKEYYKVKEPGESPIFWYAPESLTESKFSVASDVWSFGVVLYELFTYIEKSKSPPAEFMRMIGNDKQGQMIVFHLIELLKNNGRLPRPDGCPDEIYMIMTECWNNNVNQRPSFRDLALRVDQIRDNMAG

[2] = biological target: Serine/threonine-protein kinase 10 (Homo sapiens) (UniProt O94804); experiment: Inhibition of wild-type human partial length LOK (E16 to V314 residues) expressed in bacterial expression system assessed as residual activity at 50 nM by Kinomescan method relative to control
[3] = biological target: Serine/threonine-protein kinase Nek4 (Homo sapiens) (UniProt P51957); experiment: Inhibition of wild-type human full length NEK4 (M1 to F841 residues) expressed in mammalian expression system assessed as residual activity at 50 nM by Kinomescan method relative to control
[4] = biological target: Phosphatidylinositol 4-phosphate 5-kinase type-1 gamma (Homo sapiens) (UniProt O60331); experiment: Inhibition of wild-type human partial length PIP5K1C (M1 to T668 residues) expressed in mammalian expression system assessed as residual activity at 50 nM by Kinomescan method relative to control
[5] = biological target: Wee1-like protein kinase 2 (Homo sapiens) (UniProt P0C1S8); experiment: Inhibition of wild-type human partial length WEE1B (M204 to K492 residues) expressed in bacterial expression system assessed as residual activity at 50 nM by Kinomescan method relative to control
Sequence of Wee1-like protein kinase 2 (Homo sapiens) (P0C1S8 whole entry, looked up, the tested form may be a part): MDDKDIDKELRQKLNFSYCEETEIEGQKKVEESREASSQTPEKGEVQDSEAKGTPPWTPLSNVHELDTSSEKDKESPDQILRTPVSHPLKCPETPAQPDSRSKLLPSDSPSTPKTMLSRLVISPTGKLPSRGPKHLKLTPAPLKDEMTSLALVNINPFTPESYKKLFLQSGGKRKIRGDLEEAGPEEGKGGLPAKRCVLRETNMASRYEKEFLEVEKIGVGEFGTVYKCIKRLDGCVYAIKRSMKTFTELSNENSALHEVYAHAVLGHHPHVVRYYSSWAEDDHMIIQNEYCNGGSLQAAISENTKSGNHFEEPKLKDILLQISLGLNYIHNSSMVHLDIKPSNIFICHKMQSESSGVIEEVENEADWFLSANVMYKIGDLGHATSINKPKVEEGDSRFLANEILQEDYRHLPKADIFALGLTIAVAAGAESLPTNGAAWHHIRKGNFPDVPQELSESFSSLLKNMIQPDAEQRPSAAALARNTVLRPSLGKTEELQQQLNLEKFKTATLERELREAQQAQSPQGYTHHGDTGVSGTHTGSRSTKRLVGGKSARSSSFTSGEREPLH

[6] = biological target: SRSF protein kinase 1 (Homo sapiens) (UniProt Q96SB4); experiment: Inhibition of wild-type human full length SRPK1 (M1 to S655 residues) expressed in bacterial expression system assessed as residual activity at 50 nM by Kinomescan method relative to control
[7] = biological target: Activin receptor type-1B (Homo sapiens) (UniProt P36896); experiment: Inhibition of wild-type human ALK4 (S187 to I505 residues) expressed in bacterial expression system assessed as residual activity at 50 nM by Kinomescan method relative to control
[8] = biological target: 3-phosphoinositide-dependent protein kinase 1 (Homo sapiens) (UniProt O15530); experiment: Inhibition of wild-type human full length PDK1 (M1 to Q556 residues) expressed in bacterial expression system assessed as residual activity at 50 nM by Kinomescan method relative to control
[9] = biological target: Tyrosine-protein kinase receptor UFO (Homo sapiens) (UniProt P30530); experiment: Inhibition of wild-type human partial length AXL (R497 to Y821 residues) expressed in bacterial expression system assessed as residual activity at 50 nM by Kinomescan method relative to control
[10] = biological target: Serine/threonine-protein kinase/endoribonuclease IRE1 (Homo sapiens) (UniProt O75460); experiment: Inhibition of wild-type human partial length IRE1 (S551 to E852 residues) expressed in mammalian expression system assessed as residual activity at 50 nM by Kinomescan method relative to control
[11] = biological target: Casein kinase I isoform epsilon (Homo sapiens) (UniProt P49674); experiment: Inhibition of wild-type human full length CK1E (M1 to K416 residues) expressed in bacterial expression system assessed as residual activity at 50 nM by Kinomescan method relative to control
[12] = biological target: Bone morphogenetic protein receptor type-2 (Homo sapiens) (UniProt Q13873); experiment: Inhibition of wild-type human partial length BMPR2 (R179 to Q526 residues) expressed in mammalian expression system assessed as residual activity at 50 nM by Kinomescan method relative to control
Sequence of Bone morphogenetic protein receptor type-2 (Homo sapiens) (Q13873 whole entry, the tested form may be a part): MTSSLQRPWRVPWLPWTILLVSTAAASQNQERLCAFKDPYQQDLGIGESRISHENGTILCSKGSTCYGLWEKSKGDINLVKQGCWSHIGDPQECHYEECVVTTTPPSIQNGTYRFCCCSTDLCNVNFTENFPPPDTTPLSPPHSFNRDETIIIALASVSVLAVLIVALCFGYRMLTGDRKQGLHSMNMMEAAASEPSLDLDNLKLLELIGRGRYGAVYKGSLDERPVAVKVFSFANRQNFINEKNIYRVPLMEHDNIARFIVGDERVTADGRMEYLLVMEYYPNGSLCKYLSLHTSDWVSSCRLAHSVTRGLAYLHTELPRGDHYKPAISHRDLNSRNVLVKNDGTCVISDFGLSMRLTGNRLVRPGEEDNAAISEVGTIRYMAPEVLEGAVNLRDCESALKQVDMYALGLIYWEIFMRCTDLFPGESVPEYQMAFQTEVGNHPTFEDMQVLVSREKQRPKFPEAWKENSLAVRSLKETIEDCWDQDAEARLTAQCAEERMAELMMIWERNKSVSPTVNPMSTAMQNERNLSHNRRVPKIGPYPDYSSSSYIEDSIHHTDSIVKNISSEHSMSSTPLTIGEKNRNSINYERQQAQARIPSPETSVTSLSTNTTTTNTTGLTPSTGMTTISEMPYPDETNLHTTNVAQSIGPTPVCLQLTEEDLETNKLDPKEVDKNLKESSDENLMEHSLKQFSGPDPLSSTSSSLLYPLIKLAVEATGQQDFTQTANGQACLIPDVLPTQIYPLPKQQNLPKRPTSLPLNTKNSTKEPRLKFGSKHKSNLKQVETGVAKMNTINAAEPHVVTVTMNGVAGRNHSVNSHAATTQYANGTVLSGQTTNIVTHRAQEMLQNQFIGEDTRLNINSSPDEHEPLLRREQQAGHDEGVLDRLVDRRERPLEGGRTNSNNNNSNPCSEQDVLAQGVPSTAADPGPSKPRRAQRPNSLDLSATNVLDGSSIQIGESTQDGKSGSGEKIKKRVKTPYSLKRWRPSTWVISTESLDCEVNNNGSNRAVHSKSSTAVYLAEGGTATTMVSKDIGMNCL

[13] = biological target: Insulin receptor (Homo sapiens) (UniProt P06213); experiment: Inhibition of wild-type human partial length INSR (P997 to E1318 residues) expressed in mammalian expression system assessed as residual activity at 50 nM by Kinomescan method relative to control
[14] = biological target: Cyclin-dependent kinase-like 1 (Homo sapiens) (UniProt Q00532); experiment: Inhibition of wild-type human full length CDKL1 (M1 to I358 residues) expressed in mammalian expression system assessed as residual activity at 50 nM by Kinomescan method relative to control
[15] = biological target: Calcium/calmodulin-dependent protein kinase type 1G (Homo sapiens) (UniProt Q96NX5); experiment: Inhibition of wild-type human partial length CAMK1G (M1 to A342 residues) expressed in bacterial expression system assessed as residual activity at 50 nM by Kinomescan method relative to control
Sequence of Calcium/calmodulin-dependent protein kinase type 1G (Homo sapiens) (Q96NX5 whole entry, the tested form may be a part): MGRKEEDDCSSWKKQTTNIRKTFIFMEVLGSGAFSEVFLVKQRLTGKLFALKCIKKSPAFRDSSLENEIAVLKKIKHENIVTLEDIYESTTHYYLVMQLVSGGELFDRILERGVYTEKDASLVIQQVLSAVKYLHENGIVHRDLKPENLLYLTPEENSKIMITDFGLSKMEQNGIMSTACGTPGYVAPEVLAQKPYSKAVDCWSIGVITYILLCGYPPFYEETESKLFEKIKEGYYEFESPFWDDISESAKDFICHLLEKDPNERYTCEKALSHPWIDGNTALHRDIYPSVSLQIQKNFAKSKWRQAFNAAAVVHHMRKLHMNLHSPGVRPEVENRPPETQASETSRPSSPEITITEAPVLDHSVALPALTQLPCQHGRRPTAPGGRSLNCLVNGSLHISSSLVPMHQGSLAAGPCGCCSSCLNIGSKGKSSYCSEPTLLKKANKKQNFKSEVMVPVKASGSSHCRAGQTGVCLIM

[16] = biological target: Dual specificity protein kinase CLK4 (Homo sapiens) (UniProt Q9HAZ1); experiment: Inhibition of wild-type human partial length CLK4 (R135 to K481 residues) expressed in bacterial expression system assessed as residual activity at 50 nM by Kinomescan method relative to control
[17] = biological target: Serine/threonine-protein kinase 17B (Homo sapiens) (UniProt O94768); experiment: Inhibition of wild-type human full length DRAK2 (M1 to C372 residues) expressed in bacterial expression system assessed as residual activity at 50 nM by Kinomescan method relative to control
[18] = biological target: Vascular endothelial growth factor receptor 3 (Homo sapiens) (UniProt P35916); experiment: Inhibition of wild-type human partial length FLT4 (E821 to E1196 residues) expressed in bacterial expression system assessed as residual activity at 50 nM by Kinomescan method relative to control
[19] = biological target: Glycogen synthase kinase-3 beta (Homo sapiens) (UniProt P49841); experiment: Inhibition of wild-type human full length GSK3B (M1 to T433 residues) expressed in mammalian expression system assessed as residual activity at 50 nM by Kinomescan method relative to control
[20] = biological target: Dual specificity mitogen-activated protein kinase kinase 6 (Homo sapiens) (UniProt P52564); experiment: Inhibition of wild-type human partial length MAP2K6 (K36 to D334 residues) expressed in bacterial expression system assessed as residual activity at 50 nM by Kinomescan method relative to control
[21] = biological target: Interferon-induced, double-stranded RNA-activated protein kinase (Homo sapiens) (UniProt P19525); experiment: Inhibition of wild-type human partial length PKR (F247 to C551 residues) expressed in bacterial expression system assessed as residual activity at 50 nM by Kinomescan method relative to control
Sequence of Interferon-induced, double-stranded RNA-activated protein kinase (Homo sapiens) (P19525 whole entry, the tested form may be a part): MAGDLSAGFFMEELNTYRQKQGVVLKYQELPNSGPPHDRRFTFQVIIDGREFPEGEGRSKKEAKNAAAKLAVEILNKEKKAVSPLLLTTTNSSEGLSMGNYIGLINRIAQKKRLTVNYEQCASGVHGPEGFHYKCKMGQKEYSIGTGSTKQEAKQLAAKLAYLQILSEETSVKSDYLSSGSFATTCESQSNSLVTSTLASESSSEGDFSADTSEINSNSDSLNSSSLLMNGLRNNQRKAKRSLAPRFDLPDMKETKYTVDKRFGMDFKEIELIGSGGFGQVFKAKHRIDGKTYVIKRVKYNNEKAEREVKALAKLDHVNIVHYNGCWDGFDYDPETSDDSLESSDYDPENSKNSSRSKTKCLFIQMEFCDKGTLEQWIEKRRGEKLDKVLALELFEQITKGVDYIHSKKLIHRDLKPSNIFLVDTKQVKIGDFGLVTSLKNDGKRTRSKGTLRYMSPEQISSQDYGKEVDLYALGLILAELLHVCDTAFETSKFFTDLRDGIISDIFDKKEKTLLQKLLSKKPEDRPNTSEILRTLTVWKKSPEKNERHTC

[22] = biological target: TGF-beta receptor type-2 (Homo sapiens) (UniProt P37173); experiment: Inhibition of wild-type human partial length TGFBR2 (I218 to K567 residues) expressed in bacterial expression system assessed as residual activity at 50 nM by Kinomescan method relative to control
Sequence of TGF-beta receptor type-2 (Homo sapiens) (P37173 whole entry, the tested form may be a part): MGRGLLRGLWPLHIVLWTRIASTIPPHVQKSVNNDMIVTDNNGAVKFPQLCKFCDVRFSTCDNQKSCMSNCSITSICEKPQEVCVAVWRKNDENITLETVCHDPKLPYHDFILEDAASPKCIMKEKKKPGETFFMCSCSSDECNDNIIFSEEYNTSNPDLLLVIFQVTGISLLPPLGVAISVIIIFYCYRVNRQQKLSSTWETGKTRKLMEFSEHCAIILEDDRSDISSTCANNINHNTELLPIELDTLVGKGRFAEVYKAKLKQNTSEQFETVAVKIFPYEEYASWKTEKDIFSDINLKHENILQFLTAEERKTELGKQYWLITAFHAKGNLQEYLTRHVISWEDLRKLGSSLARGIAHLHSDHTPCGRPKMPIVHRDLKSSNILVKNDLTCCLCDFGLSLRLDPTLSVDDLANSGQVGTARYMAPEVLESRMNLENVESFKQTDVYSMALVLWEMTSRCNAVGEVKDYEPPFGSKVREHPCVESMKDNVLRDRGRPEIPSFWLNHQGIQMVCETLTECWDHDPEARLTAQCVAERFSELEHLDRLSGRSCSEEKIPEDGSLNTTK

[23] = biological target: NT-3 growth factor receptor (Homo sapiens) (UniProt Q16288); experiment: Inhibition of wild-type human partial length TRKC (Q531 to G825 residues) expressed in mammalian expression system assessed as residual activity at 50 nM by Kinomescan method relative to control
[24] = biological target: Mitogen-activated protein kinase kinase kinase 19 (Homo sapiens) (UniProt Q56UN5); experiment: Inhibition of wild-type human partial length YSK4 (T1019 to H1328 residues) expressed in mammalian expression system assessed as residual activity at 50 nM by Kinomescan method relative to control

Sequence of Serine/threonine-protein kinase RIO3 (Homo sapiens) (O14730 whole entry, the tested form may be a part): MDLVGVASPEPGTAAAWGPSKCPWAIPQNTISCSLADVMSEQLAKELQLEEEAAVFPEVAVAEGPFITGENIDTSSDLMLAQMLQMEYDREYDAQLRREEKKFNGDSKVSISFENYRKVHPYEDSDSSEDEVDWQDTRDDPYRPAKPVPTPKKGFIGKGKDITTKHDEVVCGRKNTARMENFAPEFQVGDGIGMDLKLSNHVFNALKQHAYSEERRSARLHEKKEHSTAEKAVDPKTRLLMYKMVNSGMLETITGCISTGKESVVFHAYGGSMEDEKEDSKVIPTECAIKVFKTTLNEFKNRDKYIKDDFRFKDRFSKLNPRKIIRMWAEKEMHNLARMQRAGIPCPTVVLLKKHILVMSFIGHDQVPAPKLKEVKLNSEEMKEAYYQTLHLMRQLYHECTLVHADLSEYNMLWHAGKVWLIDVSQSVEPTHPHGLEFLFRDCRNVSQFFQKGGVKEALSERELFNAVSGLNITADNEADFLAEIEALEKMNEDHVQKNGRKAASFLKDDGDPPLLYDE

Row | Structure (SMILES) | Activity [1] [%] | activity at 0.05 µM (JAK2) [%] | Activity [2] [%] | Activity [3] [%] | Activity [4] [%] | Activity [5] [%] | Activity [6] [%] | Activity [7] [%] | Activity [8] [%] | Activity [9] [%] | Activity [10] [%] | Activity [11] [%] | Activity [12] [%] | Activity [13] [%] | Activity [14] [%] | Activity [15] [%] | Activity [16] [%] | Activity [17] [%] | Activity [18] [%] | Activity [19] [%] | also measured
1 | COc1ccc(-c2cc3c(N[C@@H]4CC[C@](C)(N)C4(C)C)c(C(N)=O)cnn3c2)cn1 | 66 | 17 | 75 | 100 | 77 | 98 | 62 | 66 | 96 | 96 | 90 | 87 | 100 | 72 | 100 | 82 | 100 | 100 | 86 | 86 | Activity [20]: 78%; Activity [21]: 99%; Activity [22]: 100%; Activity [23]: 100%; Activity [24]: 98%
2 | CC1(C)[C@H](Nc2c(C(N)=O)cnn3cc(-c4ccccc4)cc23)CC[C@]1(C)N | 3.7 | 3.9 | 48 | 52 | 68 | 73 | 80 | 82 | 82 | 90 | 90 | 92 | 93 | 94 | 97 | 100 | 100 | 100 | 100 | 100 | Activity [20]: 100%; Activity [21]: 100%; Activity [22]: 100%; Activity [23]: 100%; Activity [24]: 100%
